Source: patent US8378104B2 (OSI Pharmaceuticals, LLC, priority 2010, dated 2013)
Counter-ions that a name gives are not always drawn. Like-named read-outs stand apart in the source and are kept apart here.

Tests used:
TAK1-TAB1 fusion protein = molecular target: T1, TAK1-TAB1 fusion protein (Homo sapiens, UniProt O43318); test: TAK1 biochemical assay (AlphaScreen, GST-MAP2K7 substrate)
T1 construct: purchased Carna
T1 sequence (O43318 with tags, fused parts or gaps limits assumed): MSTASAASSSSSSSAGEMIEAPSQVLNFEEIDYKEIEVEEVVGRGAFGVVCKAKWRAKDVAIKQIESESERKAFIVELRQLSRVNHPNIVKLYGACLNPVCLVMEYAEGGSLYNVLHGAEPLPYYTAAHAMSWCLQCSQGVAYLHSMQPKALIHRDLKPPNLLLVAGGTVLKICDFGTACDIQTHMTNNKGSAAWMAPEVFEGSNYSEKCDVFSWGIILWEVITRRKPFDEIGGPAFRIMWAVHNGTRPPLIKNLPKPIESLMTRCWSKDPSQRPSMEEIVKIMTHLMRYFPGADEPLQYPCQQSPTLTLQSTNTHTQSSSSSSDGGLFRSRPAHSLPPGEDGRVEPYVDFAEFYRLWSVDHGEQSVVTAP

pJNK in HCT-116 cells = test: Phospho-JNK (Thr183/Tyr185) Meso Scale ELISA assay, TNFα-stimulated HCT-116 cells; type: cell-based; details: Homo sapiens, read-out: mean HCT-116 pJNK ELISA IC50 (Col. B)
Procedure, shortened: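 HCT-116 cells in 1% FCS medium were pretreated with compound for 4 hrs at 37° C, then stimulated with TNFα at 10 ng/mL final for 10 minutes. Lysates were taken in ice-cold lysis buffer with phosphatase and protease inhibitors, and phospho-JNK (Thr183/Tyr185) was measured by Meso Scale ELISA.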

p-p38 in HCT-116 cells = test: Phospho-p38 Meso Scale ELISA assay, TNFα-stimulated HCT-116 cells; type: cell-based; details: Homo sapiens, read-out: mean HCT-116 p-p38 ELISA IC50 (Col. C)
Procedure: Detailed below are ELISA assays for pJNK and p38, and a TAK1 biochemical assay. […] In Table 1, Col.
• 1. Plate HCT-116 cells at 25,000 per well in 100 uL in 96 well clear dishes in normal growth medium. Day 2: • 1. Aspirate medium and replace with 90 μl reduced serum growth medium (1% FCS), incubate for 2 hours at 37° C. • 2. Make drugs at 10× in reduced serum medium and add 10 uL per well. • 3. Incubate at 37° C. for 4 hrs. • 4. Bring capture plates to room temperature. • 5. Block with 150 μl Blocking Solution (provided with kit) (600 mg Blocker A into 20 mL 1× Wash Buffer per plate) at room temperature with shaking. • 6. Wash plates 4× with 200 μl 1× wash buffer (10× provided with kit) before transferring lysates. • 7. Dilute TNFα to […] in reduced serum medium (this makes a 10× working stock). • 8. Add 10 μl TNFα to all wells except negative control wells, final concentration is 10 ng/mL. • 9. Incubate at 37° C. for 10 minutes. • 10. Remove medium by flicking into sink • 11. Wash cells with 100 uL ice cold PBS. • 12. Remove PBS by flicking into sink and patting on paper towels. • 13. Lyse cells in 50 μl ice cold 1× Complete Lysis Buffer plus Phosphatase and Protease inhibitors (all provided with kit) (10 mL Tris Lysis Buffer+200 μl Protease inhibitor solution+100 μl Phosphatase inhibitor I+100 μl Phosphatase inhibitor II). • 14. Incubate with shaking at 4° C. for 30 minutes. • 15. Transfer 45 μl to capture plate, cover with adhesive cover, and incubate at 4° C. over night with shaking. • Day 3: • 1. Wash plates 4× with 200 μl 1× wash buffer (10× provided with kit). • 2. […] Incubate at room temperature with shaking for 1 hour. • 4. Wash 4× with 200 μl 1× Wash Buffer. • 5. […] Read on Sector Imager. Phospho-p38 Meso Scale ELISA Assay Day 1: • 1. Plate HCT-116 cells at 25,000 per well in 100 uL in 96 well clear dishes in normal growth medium. zday 2: • 1. Aspirate medium and replace with 90 μl reduced serum growth medium (1% FCS), incubate for 2 hours at 37° C. • 2. Make drugs at 10× in reduced serum medium and add 10 uL per well. • 3. Incubate at 37° C. for 4 hrs. • 4. Bring capture plates to room temperature. • 5. Block with 150 μl Blocking Solution (provided with kit) (600 mg Blocker A into 20 mL 1× Wash Buffer per plate) at room temperature with shaking. • 6. Wash plates 4× with 200 μl 1× wash buffer (10× provided with kit) before transferring lysates. • 7. Dilute TNFα to […] in reduced serum medium (this makes a 10× working stock). • 8. Add 10 μl TNFα to all wells except negative control wells, final concentration is 10 ng/mL. • 9. Incubate at 37° C. for 10 minutes. • 10. Remove medium by flicking into sink • 11. Wash cells with 100 uL ice cold PBS. • 12. Remove PBS by flicking into sink and patting on paper towels. • 13. Lyse cells in 50 μl ice cold 1× Complete Lysis Buffer plus phosphatase and protease inhibitors (all provided with kit) (10 mL Tris Lysis Buffer+200 μl Protease inhibitor solution+100 μl Phosphatase inhibitor I+100 μl Phosphatase inhibitor II). • 14. Incubate with shaking at 4° C. for 30 minutes. • 15. Dilute lysates before transferring to capture plate with 100 μl Complete p38 Lysate • Dilution Buffer (provided with kit) (10 mL of Diluent 20±200 μl Protease inhibitor solution+100 μl Phosphatase inhibitor I+100 μl Phosphatase inhibitor II). • 16. Transfer 50 μl of diluted lysates to capture plate, cover with adhesive cover, and incubate at 4° C. over night with shaking. Day 3: • 1. Wash plates 4× with 200 μl 1× wash buffer (10× provided with kit). • 2. […] Incubate at room temperature with shaking for 1 hour. • 4. Wash 4× with 200 μl 1× Wash Buffer. • 5. […] Read on Sector Imager. TAK1 Biochemical Assay

[1] = TAK1-TAB1 fusion protein, GST-MAP2K7 substrate, read-out: mean TAK1 IC50 (Col. A)

Row | SMILES | IC50 (TAK1-TAB1 fusion protein; [1]) [nM] | IC50 (pJNK in HCT-116 cells) [nM] | IC50 (p-p38 in HCT-116 cells) [nM] | IC50 (TAK1-TAB1 fusion protein) [nM]
1 | CC(=O)N1CCC(n2cc(-c3cnc(N)c4oc(-c5ccccc5CC#N)cc34)cn2)CC1 [Example 215, (2-{4-[1-(1-acetylpiperidin-4-yl)-1H-pyrazol-4-yl]-7-aminofuro[2,3-c]pyridin-2-yl}phenyl)acetonitrile] | 100 to 1000 | 100 to 1000 | 100 to 1000 | 
2 | CC(=O)N1CCC(n2cc(-c3cnc(N)c4oc(-c5cccc(C#N)c5)cc34)cn2)CC1 [Example 143, 3-{4-[1-(1-acetylpiperidin-4-yl)-1H-pyrazol-4-yl]-7-aminofuro[2,3-c]pyridin-2-yl}benzonitrile] | 100 to 1000 | 100 to 1000 | 100 to 1000 | 
3 | CC(=O)N1CCC(n2cc(-c3cnc(N)c4oc(-c5cccc6ccnn56)cc34)cn2)CC1 [Example 197, 1-(4-{4-[7-amino-2-(pyrazolo[1,5-a]pyridin-7-yl)furo[2,3-c]pyridin-4-yl]-1H-pyrazol-1-yl}piperidin-1-yl)ethanone] | 100 to 1000 | 100 to 1000 | 100 to 1000 | 
4 | CC(=O)N1CCC(n2cc(-c3cnc(N)c4oc(-c5ccc6c(c5)OCO6)cc34)cn2)CC1 [Example 117, 1-(4-{4-[7-amino-2-(1,3-benzodioxol-5-yl)furo[2,3-c]pyridin-4-yl]-1H-pyrazol-1-yl}piperidin-1-yl)ethanone] | 1000 to 10000 | 1000 to 10000 | 1000 to 10000 | 
5 | CC(=O)N1CCC(n2cc(-c3cnc(N)c4oc(-c5ccc6occc6c5)cc34)cn2)CC1 [Example 114, 1-(4-{4-[7-amino-2-(1-benzofuran-5-yl)furo[2,3-c]pyridin-4-yl]-1H-pyrazol-1-yl)piperidin-1-yl]ethanone] | 1000 to 10000 | 100 to 1000 | 100 to 1000 | 
6 | CC(=O)N1CCC(n2cc(-c3cnc(N)c4oc(-c5ccsc5)cc34)cn2)CC1 [Example 174, 1-(4-{4-[7-amino-2-(thiophen-3-yl)furo[2,3-c]pyridin-4-yl]-1H-pyrazol-1-yl}piperidin-1-yl)ethanone] | 100 to 1000 | 1000 to 10000 | 1000 to 10000 | 
7 | CC(=O)N1CC(n2cc(-c3cnc(N)c4oc(-c5csc6cnccc56)cc34)cn2)C1 [Example 316, 1-{3-[4-(7-amino-2-thieno[2,3-c]pyridin-3-yl-furo[2,3-c]pyridin-4-yl)-pyrazol-1-yl]-azetidin-1-yl}-ethanone] | < 100 | 100 to 1000 | 100 to 1000 | 
8 | CC(=O)N1CCC(n2cc(-c3cnc(N)c4oc(-c5ccccc5C)cc34)cn2)CC1 [Example 410, 1-(4-{4-[7-amino-2-(2-methylphenyl)furo[2,3-c]pyridin-4-yl]-1H-pyrazol-1-yl}piperidin-1-yl)ethanone] | 100 to 1000 | 100 to 1000 | 1000 to 10000 | 
9 | COc1cc2c(-c3cc4c(-c5cnn(C6CCN(C(C)=O)CC6)c5)cnc(N)c4o3)csc2cn1 [Example 243, 1-(4-{4-[7-amino-2-(5-methoxythieno[2,3-c]pyridin-3-yl)furo[2,3-c]pyridin-4-yl]-1H-pyrazol-1-yl}piperidin-1-yl)ethanone] | 1000 to 10000 | 100 to 1000 | 1000 to 10000 | 
10 | Cn1cc(-c2cnc(N)c3oc(-c4c[nH]c5cnccc45)cc23)cn1 [Example 88, 4-(1-methyl-1H-pyrazol-4-yl)-2-(1H-pyrrolo[2,3-c]pyridin-3-yl)furo[2,3-c]pyridin-7-amine trifluoroacetic acid salt] | < 100 | 100 to 1000 | 100 to 1000 | 
11 | CC(C)(C)OC(=O)N1CCC(n2cc(-c3cnc(N)c4oc(-c5csc6cnccc56)cc34)cn2)CC1 [Example 300, 4-[4-(7-amino-2-thieno[2,3-c]pyridin-3-yl-furo[2,3-c]pyridin-4-yl)-pyrazol-1-yl]piperidine-1-carboxylic acid tert-butyl ester] | 100 to 1000 | 100 to 1000 | 100 to 1000 | 
12 | CC(=O)N1CCC(n2cc(-c3cnc(N)c4oc(-c5ccc6[nH]ncc6c5)cc34)cn2)CC1 [Example 94, 1-(4-{4-[7-amino-2-(1H-indazol-5-yl)furo[2,3-c]pyridin-4-yl]-1H-pyrazol-1-yl}piperidin-1-yl)ethanone] | 100 to 1000 | 100 to 1000 | 1000 to 10000 | 
13 | CC(=O)N1CCC(n2cc(-c3cnc(N)c4oc(-c5cccc([N+](=O)[O-])c5C)cc34)cn2)CC1 [Example 218, 1-(4-{4-[7-amino-2-(2-methyl-3-nitrophenyl)furo[2,3-c]pyridin-4-yl]-1H-pyrazol-1-yl}piperidin-1-yl)ethanone] | < 100 | 100 to 1000 | 100 to 1000 | 
14 | Nc1ncc(-c2cnn([C@H]3CC[C@H](O)CC3)c2)c2cc(-c3cccc4nnsc34)oc12 [Example 229, trans-4-{4-[7-amino-2-(1,2,3-benzothiadiazol-7-yl)furo[2,3-c]pyridin-4-yl]-1H-pyrazol-1-yl}cyclohexanol] |  | < 100 | < 100 | < 100
15 | CC(=O)N1CCC(n2cc(-c3cnc(N)c4oc(-c5cccc6cnsc56)cc34)cn2)CC1 [Example 226, 1-(4-{4-[7-amino-2-(1,2-benzothiazol-7-yl)furo[2,3-c]pyridin-4-yl]-1H-pyrazol-1-yl}piperidin-1-yl)ethanone] | < 100 | < 100 | < 100 | 
16 | CC(C)n1cc(-c2cnc(N)c3oc(-c4c[nH]c5cnccc45)cc23)cn1 [Example 90, 4-[1-(propan-2-yl)-1H-pyrazol-4-yl]-2-(1H-pyrrolo[2,3-c]pyridin-3-yl)furo[2,3-c]pyridin-7-amine] | < 100 | 100 to 1000 | < 100 | 
17 | Nc1ncc(-c2cnn(C3CCOCC3)c2)c2cc(-c3cccc4cnccc34)oc12 [Example 74, 2-(isoquinolin-5-yl)-4-[1-(tetrahydro-2H-pyran-4-yl)-1H-pyrazol-4-yl]furo[2,3-c]pyridin-7-amine] | 100 to 1000 | 100 to 1000 | 1000 to 10000 | 
18 | CC(=O)N1CCC(n2cc(-c3cnc(N)c4oc(-c5cccc([N+](=O)[O-])c5)cc34)cn2)CC1 [Example 112, 1-(4-{4-[7-amino-2-(3-nitrophenyl)furo[2,3-c]pyridin-4-yl]-1H-pyrazol-1-yl}piperidin-1-yl)ethanone] | < 100 | 100 to 1000 | 100 to 1000 | 
